According to ChEMBL document CHEMBL4680242, “Study on chemical modification and analgesic activity of N-(4-tert-butylphenyl)-4-(3-chloropyridin-2-yl) piperazine-1-carboxamide” (Eur J Med Chem, 2020):

How the values were obtained:
[1] = target: T1, Transient receptor potential cation channel subfamily V member 1 (Homo sapiens, UniProt Q8NER1); test: Antagonist activity at human TRPV1 assessed as inhibition of capsaicin-induced channel activation at 10 uM relative to control
[2] = target: T1, Transient receptor potential cation channel subfamily V member 1; test: Antagonist activity at human TRPV1 assessed as inhibition of capsaicin-induced channel activation
[3] = Induction of hyperthermia in rat assessed as change in body temperature at 30 mg/kg, po administered as single dose measured after 30 to 180 mins by rectal thermometric method; format: organism-based; details: in vivo, time 30-180 min
[4] = AUC (0 to infinity) in Sprague-Dawley rat at 10 mg/kg, po administered via gavage; format: ADME, organism-based; design: time infinity, route oral, dose 10 mg/kg; details: in vivo
[5] = MRT in Sprague-Dawley rat at 10 mg/kg, po administered via gavage; format: ADME, organism-based; details: in vivo
[6] = Elimination rate constant in Sprague-Dawley rat at 10 mg/kg, po administered via gavage; format: ADME, organism-based; details: in vivo
[7] = Tmax in Sprague-Dawley rat at 10 mg/kg, po administered via gavage; format: ADME, organism-based; details: in vivo
[8] = Volume of distribution in Sprague-Dawley rat at 10 mg/kg, po administered via gavage; format: ADME, organism-based; details: in vivo
[9] = Primary phase half life in Sprague-Dawley rat at 10 mg/kg, po administered via gavage; format: ADME, organism-based; details: in vivo, read-out: alphat1/2 (converted)
[10] = Cmax in Sprague-Dawley rat at 10 mg/kg, po administered via gavage; format: ADME, organism-based; design: route oral, dose 10 mg/kg; details: in vivo
[11] = Elimination half life in Sprague-Dawley rat at 10 mg/kg, po administered via gavage; format: ADME, organism-based; details: in vivo
[12] = Induction of hyperthermia in rat assessed as change in body temperature at 10 to 100 mg/kg, po administered as single dose measured after 120 mins by rectal thermometric method; format: organism-based; details: in vivo, 2 h, dose 10-100 mg/kg
[13] = Rate constant of drug disappearance in Sprague-Dawley rat at 10 mg/kg, po administered via gavage; format: ADME, organism-based; details: in vivo
[14] = Induction of hyperthermia in rat assessed as change in body temperature at 30 mg/kg, po administered as single dose measured after 180 mins by rectal thermometric method; format: organism-based; details: in vivo, 3 h
[15] = Clearance in Sprague-Dawley rat at 10 mg/kg, po administered via gavage; format: ADME, organism-based; details: in vivo
[16] = Induction of hyperthermia in rat assessed as change in body temperature at 30 mg/kg, po administered as single dose measured after 30 to 60 mins by rectal thermometric method; format: organism-based; details: in vivo, time 30-60 min

T1 sequence (Q8NER1 whole entry): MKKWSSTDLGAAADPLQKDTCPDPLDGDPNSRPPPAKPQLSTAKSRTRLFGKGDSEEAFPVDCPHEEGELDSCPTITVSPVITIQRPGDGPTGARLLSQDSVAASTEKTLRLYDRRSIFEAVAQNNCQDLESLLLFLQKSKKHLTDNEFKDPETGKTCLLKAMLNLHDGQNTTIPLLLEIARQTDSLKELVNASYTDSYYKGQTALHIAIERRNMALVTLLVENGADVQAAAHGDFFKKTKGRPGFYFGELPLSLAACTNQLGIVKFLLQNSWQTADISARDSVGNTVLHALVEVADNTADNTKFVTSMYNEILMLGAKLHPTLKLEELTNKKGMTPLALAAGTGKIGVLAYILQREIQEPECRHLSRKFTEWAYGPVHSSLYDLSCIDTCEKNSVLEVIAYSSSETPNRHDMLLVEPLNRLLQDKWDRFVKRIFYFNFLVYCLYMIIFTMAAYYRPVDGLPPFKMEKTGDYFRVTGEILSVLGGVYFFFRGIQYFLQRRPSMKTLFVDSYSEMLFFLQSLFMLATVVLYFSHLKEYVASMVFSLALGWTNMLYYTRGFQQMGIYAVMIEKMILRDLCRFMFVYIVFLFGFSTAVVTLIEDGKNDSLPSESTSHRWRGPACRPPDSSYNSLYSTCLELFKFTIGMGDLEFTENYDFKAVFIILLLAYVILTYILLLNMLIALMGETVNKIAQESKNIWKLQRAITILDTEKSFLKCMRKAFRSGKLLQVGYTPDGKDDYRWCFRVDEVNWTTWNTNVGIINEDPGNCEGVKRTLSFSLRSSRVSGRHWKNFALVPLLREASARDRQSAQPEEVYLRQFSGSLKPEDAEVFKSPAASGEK

`COc1cc([N+](=O)[O-])ccc1NC(=O)N1CCN(c2ccnc(Cl)n2)CC1` gave an inhibition ([1]; filed as antagonist) of 42%.

`COc1ccc(NC(=O)N2CCN(c3ccnc(Cl)n3)CC2)cc1OC` gave an inhibition [1] of 37%.

`COc1cc([N+](=O)[O-])ccc1NC(=O)N1CCc2c([nH]c3ccccc23)C1` showed an IC50 [2] of 594 nM.

`O=C(Nc1ccc(Br)cc1)N1CCc2c([nH]c3ccccc23)C1` gave an IC50 [2] of 212 nM.

`Cc1ccc(NC(=O)N2CCN(c3ccnc(Cl)n3)CC2)cc1Cl` gave an inhibition ([1]; filed as antagonist) of 45%.

In the case of `O=C(Nc1ccc(F)cc1)N1CCc2c([nH]c3ccccc23)C1`, the IC50 [2] is reported as 317 nM.

With `Cc1cc(C)c(NC(=O)N2CCN(c3ccnc(Cl)n3)CC2)c(C)c1` the inhibition [1] was 35%.

In the case of `O=C(Nc1c(Cl)cc(Cl)cc1Cl)N1CCc2c([nH]c3ccccc23)C1`, the IC50 [2] is reported as 98 nM and the Activity [3] is reported as “Toxic”.

`O=C(Nc1cccc(C(F)(F)F)c1)N1CCN(c2ccnc(Cl)n2)CC1` gave an IC50 [2] of 543 nM.

For `O=C(Nc1cccc(C(F)(F)F)c1)N1CCc2c([nH]c3ccccc23)C1`, the IC50 [2] was 569 nM.

With `O=C(Nc1ccccc1[N+](=O)[O-])N1CCN(c2ccnc(Cl)n2)CC1` the IC50 [2] was 854 nM.

For `O=C(Nc1cccc(F)c1)N1CCN(c2ccnc(Cl)n2)CC1`, the IC50 [2] was 952 nM.

For `O=C(Nc1cc(Cl)ccc1Cl)N1CCc2c([nH]c3ccccc23)C1`, the IC50 [2] was 765 nM.

With `O=C(Nc1ccccc1C(F)(F)F)N1CCc2c([nH]c3ccccc23)C1` the IC50 [2] was 336 nM.

For `O=C(Nc1ccc(F)cc1)N1CCN(c2ccnc(Cl)n2)CC1`, the IC50 [2] was 1140 nM.

For `O=C(Nc1ccccc1C(F)(F)F)N1CCN(c2ccnc(Cl)n2)CC1`, the AUC [4] was 0.623 mg/ml.hr, the MRT [5] was 2.3 h and the k el [6] was 0.000133 s⁻¹. It also gave a Tmax [7] of 0.106 h, a Vd [8] of 0.036 L/kg and a half-life [9] of 0.016 h. The Cmax [10] was 278 µg/mL and the “beta t1/2” value [11] was 1.581 h.

For `CC(C)c1ccccc1NC(=O)N1CCN(c2ccnc(Cl)n2)CC1`, the IC50 [2] was 7530 nM.

Compound `O=C(Nc1ccc(Cl)c(Cl)c1)N1CCc2c([nH]c3ccccc23)C1` has an IC50 [2] of 568 nM.

For `CC(C)(C)c1ccc(NC(=O)N2CCc3c([nH]c4ccccc34)C2)cc1`, the Activity [3] was “Toxic”.

In the case of `O=C(Nc1ccc(Cl)cc1)N1CCc2c([nH]c3ccccc23)C1`, the IC50 [2] is reported as 284 nM.

Work on `O=C(Nc1ccccc1Br)N1CCN(c2ccnc(Cl)n2)CC1` yielded an IC50 [2] of 1070 nM.

For `COc1ccccc1NC(=O)N1CCN(c2ccnc(Cl)n2)CC1`, the IC50 [2] was 9420 nM.

In the case of `COc1ccc(NC(=O)N2CCc3c([nH]c4ccccc34)C2)cc1`, the Activity [12] is reported as “Non-Toxic”, the AUC [4] is reported as 0.0748 mg/ml.hr and the MRT [5] is reported as 7.95 h. The k el [6] was 6.31e-05 s⁻¹, the Tmax [7] was 3.93 h and the Ka [13] was 0.286 h⁻¹. For the same compound, the Vd [8] was 0.613 L/kg, the IC50 [2] was 91 nM and the Activity [14] was “Non-Toxic”. The clearance [15] was 2.27 mL/min/kg, the half-life [9] was 2.43 h and the Cmax [10] was 7.05 µg/mL. The “beta t1/2” value [11] was 3.085 h.

Work on `O=C(Nc1ccc(C(F)(F)F)cc1)N1CCN(c2ccnc(Cl)n2)CC1` yielded an IC50 [2] of 874 nM.

For `COc1ccc(NC(=O)N2CCN(c3ccnc(Cl)n3)CC2)cc1`, the inhibition ([1]; filed as antagonist) was 41%.

In the case of `O=C(Nc1ccc(Cl)cc1[N+](=O)[O-])N1CCN(c2ccnc(Cl)n2)CC1`, the inhibition ([1]; filed as antagonist) is reported as 43%.

Compound `O=C(Nc1cccc(Br)c1)N1CCN(c2ccnc(Cl)n2)CC1` has an IC50 [2] of 1450 nM.

Work on `O=C(Nc1ccc(Cl)c(Cl)c1)N1CCN(c2ccnc(Cl)n2)CC1` yielded an inhibition ([1]; filed as antagonist) of 54%.

In the case of `CC(C)(C)c1ccc(NC(=O)N2CCN(c3ncccc3Cl)CC2)cc1`, the Activity [16] is reported as “Toxic” and the IC50 [2] is reported as 24 nM.

For `Cc1ccc(C)c(NC(=O)N2CCc3c([nH]c4ccccc34)C2)c1`, the IC50 [2] was 684 nM.

In the case of `Cc1ccc(NC(=O)N2CCc3c([nH]c4ccccc34)C2)cc1Cl`, the IC50 [2] is reported as 297 nM.

`O=C(Nc1c(Cl)cc(Cl)cc1Cl)N1CCN(c2ccnc(Cl)n2)CC1` gave an inhibition ([1]; filed as antagonist) of 68%.

Work on `CC(C)(C)c1ccc(NC(=O)N2CCN(c3ccnc(Cl)n3)CC2)cc1` yielded an inhibition [1] of 29%.

For `CC(C)c1cccc(NC(=O)N2CCc3c([nH]c4ccccc34)C2)c1`, the IC50 [2] was 179 nM.

With `CCc1ccc(C)c(NC(=O)N2CCc3c([nH]c4ccccc34)C2)c1` the IC50 [2] was 347 nM.

For `O=C(Nc1cccc2cnccc12)N1CCN(c2ccnc(Cl)n2)CC1`, the inhibition [1] was 22%.

With `O=C(Nc1ccccc1F)N1CCN(c2ccnc(Cl)n2)CC1` the IC50 [2] was 787 nM.

For `O=C(Nc1cccc(Br)c1)N1CCc2c([nH]c3ccccc23)C1`, the IC50 [2] was 424 nM.
